The NIST ThermoML archive (doi:10.1016/j.jct.2011.08.015)

What was measured:
[1] = for surface tension liquid-gas: Drop volume; for electrical conductivity / viscosity / speed of sound / mass density: 101.33 kPa, Liquid; for electrical conductivity: CRISON model GLP31; for viscosity: Capillary tube (Ostwald / Ubbelohde) method; for speed of sound: Sing-around technique in a fixed-path interferometer; for mass density: Vibrating tube method
[2] = molar heat capacity at constant pressure; settings: 101.33 kPa, Liquid, Small sample (50 mg) DSC
[3] = refractive index (Na D-line) (dimensionless); settings: 101.33 kPa, Liquid, Standard Abbe refractometry

CCC[n+]1ccccc1.F[B-](F)(F)F [1-propylpyridinium tetrafluoroborate]
Settings | electrical conductivity, [1] [S/m] | mass density, [1] [kg/m3] | molar heat capacity at constant pressure, [2] [J/K/mol] | refractive index, [3] | speed of sound, [1] [m/s] | surface tension liquid-gas, [1] [mN/m] | viscosity, [1] [mPa·s]
278.15 K | 0.102 | 1267.63 | 352 | – | 1691.9 | 52.55 | 461.4
280.65 K | 0.123 | 1265.78 | 354 | – | 1685.4 | 52.35 | 379.1
283.15 K | 0.151 | 1263.92 | 355 | 1.44855 | 1678.9 | 52.16 | 314.2
285.65 K | 0.181 | 1262.06 | 356 | 1.44789 | 1672.5 | 51.94 | 262.5
288.15 K | 0.215 | 1260.19 | 357 | 1.44723 | 1666.2 | 51.72 | 220.8
290.65 K | 0.252 | 1258.42 | 359 | 1.44655 | 1660 | 51.53 | 186.9
293.15 K | 0.302 | 1256.64 | 361 | 1.44588 | 1653.9 | 51.29 | 160
295.65 K | 0.352 | 1254.86 | 362 | 1.44522 | 1647.8 | 51.15 | 137.7
298.15 K | 0.401 | 1253.08 | 363 | 1.44455 | 1641.7 | 50.97 | 119.5
300.65 K | 0.456 | 1251.3 | 365 | 1.44389 | 1635.7 | 50.73 | 103.8
303.15 K | 0.516 | 1249.52 | 366 | 1.44322 | 1629.8 | 50.51 | 90.75
305.65 K | 0.581 | 1247.73 | 367 | 1.44256 | 1623.8 | 50.32 | 79.75
308.15 K | 0.649 | 1245.95 | 369 | 1.4419 | 1618 | 50.12 | 70.61
310.65 K | 0.722 | 1244.18 | 370 | 1.44123 | 1612.1 | 49.93 | 62.81
313.15 K | 0.799 | 1242.4 | 372 | 1.44057 | 1606.3 | 49.79 | 56.02
315.65 K | 0.881 | 1240.63 | 373 | 1.4399 | 1600.5 | 49.54 | 50.22
318.15 K | 0.965 | 1238.86 | 374 | 1.43924 | 1594.8 | 49.41 | 45.19
320.65 K | 1.07 | 1237.1 | 376 | 1.43859 | 1589 | 49.21 | 40.86
323.15 K | 1.15 | 1235.33 | 377 | 1.43792 | 1583.3 | 49.03 | 36.99
325.65 K | 1.26 | 1233.58 | 378 | 1.43726 | 1577.6 | 48.82 | 33.84
328.15 K | 1.37 | 1231.82 | 380 | 1.43659 | 1572 | 48.7 | 30.72
330.65 K | 1.48 | 1230.07 | 381 | 1.43593 | 1566.3 | 48.46 | 28.09
333.15 K | 1.6 | 1228.32 | 383 | 1.43528 | 1560.7 | 48.3 | 25.81
335.65 K | 1.73 | 1226.57 | 384 | 1.43463 | 1555.1 | 48.1 | 23.78
338.15 K | 1.87 | 1224.83 | 385 | 1.43398 | 1549.5 | 47.86 | 21.97
